Drawing on BindingDB's records for doi:10.1021/jm7011613 (Abbott Laboratories, 2008), this text covers EC50 for 23 compounds.

pEC50: −log10 of the molar value.

The target of the test is Cannabinoid receptor 2 (Homo sapiens, UniProt P34972). The test is described as follows: Radioligand Binding Assay. As for the experimental part: IC50 values for test compounds were determined from nonlinear regression analysis of data collected from ligand binding experiments. The inhibition constant (Ki) was calculated from IC50 value by the Cheng and Prusoff equation.
Cannabinoid receptor 2, sequence (P34972 whole entry): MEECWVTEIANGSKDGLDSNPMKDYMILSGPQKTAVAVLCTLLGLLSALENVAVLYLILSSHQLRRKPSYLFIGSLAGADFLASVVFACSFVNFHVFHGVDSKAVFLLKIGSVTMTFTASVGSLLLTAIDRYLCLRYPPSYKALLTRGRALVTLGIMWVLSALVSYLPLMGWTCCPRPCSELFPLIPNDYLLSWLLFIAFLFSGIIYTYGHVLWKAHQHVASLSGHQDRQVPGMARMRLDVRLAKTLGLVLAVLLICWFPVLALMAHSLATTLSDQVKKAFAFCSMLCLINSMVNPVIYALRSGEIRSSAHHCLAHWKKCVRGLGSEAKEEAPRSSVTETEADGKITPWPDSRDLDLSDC
`Cc1c(C(=O)C2C(C)(C)C2(C)C)c2ccccc2n1CCN1CCOCC1` [4-(2-{2-methyl-3-[(2,2,3,3-tetramethylcyclopropyl)carbonyl]-1H-indol-1-yl}ethyl)morpholine]: the pEC50 was 6.44.
The result for `COc1cccc2c1c(C(=O)C1C(C)(C)C1(C)C)cn2CC1CCOCC1` [4-methoxy-1-(oxan-4-ylmethyl)-3-[(2,2,3,3-tetramethylcyclopropyl)carbonyl]-1H-indole] reads 7.04.
For the compound `CC1(C)C(C(=O)c2cn(CC3CCOCC3)c3ccc(Br)cc23)C1(C)C` [5-bromo-1-(oxan-4-ylmethyl)-3-[(2,2,3,3-tetramethylcyclopropyl)carbonyl]-1H-indole], the pEC50 is 6.41.
The result for `CC1(C)C(C(=O)c2cn(CC3CCOCC3)c3ccc(F)cc23)C1(C)C` [5-fluoro-1-(oxan-4-ylmethyl)-3-[(2,2,3,3-tetramethylcyclopropyl)carbonyl]-1H-indole] reads 7.44.
The result for `COc1ccc2c(c1)c(C(=O)C1C(C)(C)C1(C)C)cn2CC1CCOCC1` [5-methoxy-1-(oxan-4-ylmethyl)-3-[(2,2,3,3-tetramethylcyclopropyl)carbonyl]-1H-indole] reads 7.00.
Next, `CC1(C)C(C(=O)c2cn(CC3CCOCC3)c3cc(O)ccc23)C1(C)C` [1-(oxan-4-ylmethyl)-3-[(2,2,3,3-tetramethylcyclopropyl)carbonyl]-1H-indol-6-ol]: 7.73; `CC1(C)C(C(=O)c2cn(CC3CCOCC3)c3cc(OCc4ccccc4)ccc23)C1(C)C` [6-(benzyloxy)-1-(oxan-4-ylmethyl)-3-[(2,2,3,3-tetramethylcyclopropyl)carbonyl]-1H-indole]: 6.78.
Compound `CC1(C)C(C(=O)c2cn(CC3CCOCC3)c3ccc(Cl)cc23)C1(C)C` [5-chloro-1-(oxan-4-ylmethyl)-3-[(2,2,3,3-tetramethylcyclopropyl)carbonyl]-1H-indole] gave a pEC50 of 6.88.
The result for `CC1(C)C(C(=O)c2cn(CC3CCOCC3)c3ccc(N)cc23)C1(C)C` [1-(oxan-4-ylmethyl)-3-[(2,2,3,3-tetramethylcyclopropyl)carbonyl]-1H-indol-5-amine] reads 7.81; that for `CC1(C)C(C(=O)c2cn(CC3CCOCC3)c3cc(O)c(O)cc23)C1(C)C` [1-(oxan-4-ylmethyl)-3-[(2,2,3,3-tetramethylcyclopropyl)carbonyl]-1H-indole-5,6-diol], 7.55; that for `CC1(C)C(C(=O)c2cn(CC3CCOCC3)c3ccc(CO)cc23)C1(C)C` [[1-(oxan-4-ylmethyl)-3-[(2,2,3,3-tetramethylcyclopropyl)carbonyl]-1H-indol-5-yl]methanol], 7.01.
Next, `CC1(C)C(C(=O)c2cn(CC3CCOCC3)c3ccccc23)C1(C)C` [1-(oxan-4-ylmethyl)-3-[(2,2,3,3-tetramethylcyclopropyl)carbonyl]-1H-indole]: 8.02; `CC1(C)C(C(=O)c2cn(CC3CCOCC3)c3cc(Cl)ccc23)C1(C)C` [6-chloro-1-(oxan-4-ylmethyl)-3-[(2,2,3,3-tetramethylcyclopropyl)carbonyl]-1H-indole]: 7.68; `CC1(C)C(C(=O)c2cn(CC3CCOCC3)c3cccc(O)c23)C1(C)C` [1-(oxan-4-ylmethyl)-3-[(2,2,3,3-tetramethylcyclopropyl)carbonyl]-1H-indol-4-ol]: 7.14.
Next, `CC1(C)C(C(=O)c2cn(CC3CCOCC3)c3ccc(C#N)cc23)C1(C)C` [1-(oxan-4-ylmethyl)-3-[(2,2,3,3-tetramethylcyclopropyl)carbonyl]-1H-indole-5-carbonitrile]: 6.58.
The compound `CC1(C)C(C(=O)c2cn(CC3CCOCC3)c3cc4c(cc23)OCO4)C1(C)C` [5-(oxan-4-ylmethyl)-7-[(2,2,3,3-tetramethylcyclopropyl)carbonyl]-2H,5H-[1,3]dioxolo[4,5-f]indole] gave a pEC50 of 7.53.
Next, `CC1(C)C(C(=O)c2cn(CC3CCOCC3)c3ccc(O)cc23)C1(C)C` [1-(oxan-4-ylmethyl)-3-[(2,2,3,3-tetramethylcyclopropyl)carbonyl]-1H-indol-5-ol]: 7.96; `CC1(C)C(C(=O)c2cn(CC3CCOCC3)c3c(F)c(F)c(F)c(F)c23)C1(C)C` [4,5,6,7-tetrafluoro-1-(oxan-4-ylmethyl)-3-[(2,2,3,3-tetramethylcyclopropyl)carbonyl]-1H-indole]: 7.40.
With `COCc1ccc2c(c1)c(C(=O)C1C(C)(C)C1(C)C)cn2CC1CCOCC1` [5-(methoxymethyl)-1-(oxan-4-ylmethyl)-3-[(2,2,3,3-tetramethylcyclopropyl)carbonyl]-1H-indole], the pEC50 is 7.13.
Next, `CC1(C)C(C(=O)c2cn(CC3CCOCC3)c3cc(C#N)ccc23)C1(C)C` [1-(oxan-4-ylmethyl)-3-[(2,2,3,3-tetramethylcyclopropyl)carbonyl]-1H-indole-6-carbonitrile]: 7.28.
Next, `CC1(C)C(C(=O)c2cn(CCN3CCOCC3)c3cccc(N)c23)C1(C)C` [1-[2-(morpholin-4-yl)ethyl]-3-[(2,2,3,3-tetramethylcyclopropyl)carbonyl]-1H-indol-4-amine]: 6.67; `CC1(C)C(C(=O)c2cn(CC3CCOCC3)c3cccc(OCc4ccccc4)c23)C1(C)C` [4-(benzyloxy)-1-(oxan-4-ylmethyl)-3-[(2,2,3,3-tetramethylcyclopropyl)carbonyl]-1H-indole]: 6.30.
In the case of `CC1(C)C(C(=O)c2cn(CCN3CCOCC3)c3ccccc23)C1(C)C` [4-(2-{3-[(2,2,3,3-tetramethylcyclopropyl)carbonyl]-1H-indol-1-yl}ethyl)morpholine], the pEC50 was 7.76. Compared with the last compound, the pEC50 is 1.46 log units higher.

By pEC50 is commonly meant the EC50 on a negative log10 scale, so that one unit is a factor of ten. A high value points to a small EC50.
